From patent US7785705B2, “Flower thinning agent” (priority 2002, dated 2010)

Legend:
pear (Kosui) tree [1] = experiment: Flower thinning effect on pear (Kosui) tree at low air temperature and bad weather; conditions: low air temperature at flowering, bad weather
Text: Using a pear (Kosui) tree, flower thinning effect was confirmed. That is, using the aforementioned pear tree, the flower thinning agent of Example 1 was spread at a concentration indicated in Table 10 two times, at a flowering rate of 30% and 80%. In this respect, at the present experiment, an air temperature at flowering was low, and weather was bad. Therefore, a scatter in flowering was greater than usual. […] Treatment was every branch treatment, and the agent was spread with a back loading sprayer.
(§1) Assessment was expressed as a remaining fruit rate relative to the number of flowering. Regarding medicine damage, results of observation of a leaf state such as defoliation, discolored leaf and deformed leaf were expressed by the following five stages.
According to the same manner as that of Application Example 64 except that any of the flower thinning agents of Examples 4, 5, 7, 9, 15 and 21, and Comparative Examples 1, 4, 8 and 10 was used in place of the flower thinning agent of Example 1, an experiment was performed.
(§2) An effective ingredient concentration was based on a solid matter weight of a lime and sulfur agent.
(§3) An effective ingredient concentration was based on a solid matter weight of itaconic acid.
(§4) An effective ingredient concentration was based on a solid matter weight of high purity lecithin.
An effective ingredient concentration was based on a solid matter weight of calcium formate.

grape (King Dela) tree = experiment: Flower thinning effect on grape (King Dela) tree, agent spread two times, at a flowering rate of 30% and 80%; assay type: in vivo
Text: Using a grape (King Dela) tree, flower thinning effect was confirmed.
Assessment was expressed as a remaining fruit rate regarding the number of flowering.

apple (Fuji) tree = experiment: Flower thinning effect on apple (Fuji) tree, agent spread two times, one day and three days after full blooming of a central flower; assay type: in vivo
Text: Using an apple (Fuji) tree, flower thinning effect was confirmed. […] Assessment was expressed by a remaining fruit rate regarding a central flower and a lateral flower.

pear (Kosui) tree [2] = experiment: Flower thinning effect on pear (Kosui) tree, agent spread two times, at a flowering rate of 30% and 80%; assay type: in vivo
Text: Using a pear (Kosui) tree, flower thinning effect was confirmed. That is, using the aforementioned pear tree, the flower thinning agent of Example 1 was spread at a concentration indicated in Table 6 two times, at a flowering rate of 30% and 80%. […] Treatment was every branch treatment, and the agent was spread with a back loading sprayer.
as §1, §2, §3, §4

[3] = effective ingredient conc. 0.33%
[4] = effective ingredient conc. 1.00%

SMILES | Remaining fruit rate (%) (pear (Kosui) tree [1]; effective ingredient conc. 0.15%) | Remaining fruit rate (%) (pear (Kosui) tree [1]; effective ingredient conc. 0.45%) | Remaining fruit rate (%) (grape (King Dela) tree; [3]) | Remaining fruit rate (%) (grape (King Dela) tree; [4]) | Fruition rate (%) Central flower (apple (Fuji) tree; [3]) [%] | Fruition rate (%) Lateral flower (apple (Fuji) tree; [3]) [%] | Fruition rate (%) Central flower (apple (Fuji) tree; [4]) [%] | Fruition rate (%) Lateral flower (apple (Fuji) tree; [4]) [%] | Remaining fruit rate (%) (pear (Kosui) tree [2]; [3]) | Remaining fruit rate (%) (pear (Kosui) tree [2]; [4]) | Remaining fruit rate (%) (pear (Kosui) tree [1]; [3]) | Remaining fruit rate (%) (pear (Kosui) tree [1]; [4])
O=C[O-].O=C[O-].[Ca+2] [calcium formate] | 79.9 | 72.3 | – | – | – | – | – | – | – | – | – | –
C=C(CC(=O)O)C(=O)O [itaconic acid] | – | – | 57.5 | 53.0 | 88.2 | 57.9 | 85.4 | 50.3 | 57.9 | 53.3 | 70.0 | 63.9
